For orientation: EC50 means the concentration at which the effect is half-maximal.

Experiment [1] deals with T1, human enzyme NAMPT (full length) (Homo sapiens, UniProt P43490).
T1 construct: human enzyme NAMPT (full length)
The experiment can be described thus: NMN fluorescence biochemical assay (stimulation of NMN synthesis by NAMPT). The settings on record: for EC50: concentration giving half-maximal activation, read-out: Enzymatic EC50; for Enzymatic Emax: fold change of maximal activation compared to DMSO. In short, it runs like this: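 Full-length human NAMPT (100 nM) was preincubated 15 min at 37 °C with compound in 50 mM Tris-HCl pH 7.5, 10 mM MgCl2, 2 mM DTT, then reacted 1 h at 37 °C with 50 μM NAM, 100 μM PRPP, 4 mM ATP (stated solution concentrations). NMN was derivatised with acetophenone/KOH then formic acid and read at Ex/Em 382/445 nm; EC50 and Emax (fold over DMSO) reported.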

For experiment [2], the system named is endogenous NAMPT in U2OS cells. The experiment can be described thus: Cellular NAD+ modulation assay (NAD/NADH-Glo, U2OS cells). Type of experiment: cell-based. The settings on record: Homo sapiens; for maximal fold induction: read-out: Cellular Emax. Summed up: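 Endogenous NAMPT stimulation in U2OS cells treated with compound dilution series for 24 h at 37 °C. Cells lysed with DTAB base, acid-treated 15 min at 60 °C, neutralized, NAD+ read by NAD/NADH-Glo luminescence after 40 min at room temperature. EC50 and Emax (fold over DMSO) derived.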

The mark [3] stands for this setting: NMN fluorescence assay, purified human NAMPT 100 nM.
Setting [4] is: 24 hours incubation, cellular NAD+.
Where [5] appears, read: NMN synthesis by purified human NAMPT (100 nM).
The mark [6] stands for this setting: 24 hours incubation with compound.

Like-named read-outs stand apart in the source and are kept apart here.

T1 sequence (P43490 whole entry): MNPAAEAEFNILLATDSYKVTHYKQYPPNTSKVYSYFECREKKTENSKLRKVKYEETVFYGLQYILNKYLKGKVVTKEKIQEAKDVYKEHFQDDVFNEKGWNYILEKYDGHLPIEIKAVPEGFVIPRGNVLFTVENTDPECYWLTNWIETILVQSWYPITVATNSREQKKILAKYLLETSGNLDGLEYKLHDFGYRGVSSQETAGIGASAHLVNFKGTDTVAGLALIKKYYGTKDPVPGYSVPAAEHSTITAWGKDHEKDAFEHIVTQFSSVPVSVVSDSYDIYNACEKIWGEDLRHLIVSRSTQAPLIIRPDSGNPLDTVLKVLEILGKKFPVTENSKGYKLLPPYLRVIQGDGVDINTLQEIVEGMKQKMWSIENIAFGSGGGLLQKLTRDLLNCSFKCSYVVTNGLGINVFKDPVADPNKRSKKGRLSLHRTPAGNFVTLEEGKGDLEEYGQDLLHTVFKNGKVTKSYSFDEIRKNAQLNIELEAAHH

Take `Cn1ncc(Cl)c1CC1c2ccccc2C(=O)N1Cc1cc(=O)[nH]o1` (stereo not shown) [Compound 602, 5-((1-((4-chloro-1-methyl-1H-pyrazol-5-yl)methyl)-3-oxoisoindolin-2-yl)methyl)isoxazol-3(2H)-one]: in experiment [1] (setting [3]), the EC50 was at least 5000 nM. In addition, in experiment [1], the “Enzymatic Emax” value is “B (3≥B>2)”. Moreover, in experiment [2] (setting [4]), the EC50 was in the range of 500 to 5000 nM and the maximal fold induction is over 1.5.

With `COc1ccc(CN2C(=O)c3ccccc3C2Cc2c(C#N)ccnc2C#N)cc1` (stereo not shown) [Compound 590, 3-((2-(4-methoxybenzyl)-3-oxoisoindolin-1-yl)methyl)pyridine-2,4-dicarbonitrile], in experiment [1] (setting [3]), the concentration giving a half-maximal response (EC50) lay within 500 to 5000 nM. For the same molecule, the “Enzymatic Emax” value in experiment [1] is listed as “B (3≥B>2)”. Further, in experiment [2] (setting [4]), the half-maximal effective concentration (EC50) was in the range of 500 to 5000 nM and the maximal fold induction lay in the range of 1.2 to 1.5.

Take `CC1c2cc(-c3cnco3)ccc2C(=O)N1Cc1ccc2[nH]c(=O)oc2c1` (single isomer, unassigned) [Compound 162]: the concentration for a half-maximal effect (EC50) in experiment [1] (setting [5]) is 500 to 5000 nM. Moreover, in experiment [1], the “Enzymatic Emax” value is recorded as “B (3≥B>2)”. In experiment [2] (setting [6]), the EC50 was 5000 to 50000 nM and the maximal fold induction is over 1.5.

Consider `Cn1ncc(Cl)c1CC1c2cc(CN3CCCC3)ccc2C(=O)N1CC1CC2(CNC(=O)O2)C1` (stereo not shown) [Compound 462, 2-((3-((4-chloro-1-methyl-1H-pyrazol-5-yl)methyl)-1-oxo-5-(pyrrolidin-1-ylmethyl)isoindolin-2-yl)methyl)-5-oxa-7-azaspiro[3.4]octan-6-one], for which, in experiment [1] (setting [3]), the concentration for a half-maximal effect (EC50) fell in the range of 500 to 5000 nM. In addition, the “Enzymatic Emax” value in experiment [1] is “C (2≥C)”. For the same molecule, in experiment [2] (setting [4]), the 50% effective concentration (EC50) was 5000 to 50000 nM and the maximal fold induction is over 1.5.

Turning to `O=C1c2cnccc2CN1Cc1ccc(O)cc1` [Compound 42, 2-(4-hydroxybenzyl)-1,2-dihydro-3H-pyrrolo[3,4-c]pyridin-3-one], in experiment [1] (setting [5]), the EC50 is at least 5000 nM. In addition, in experiment [1], the “Enzymatic Emax” value was “A (A>3)”. In experiment [2] (setting [6]), the EC50 was 5000 to 50000 nM and the maximal fold induction is over 1.5.

As for `Cn1ncc(Cl)c1CC1c2ccccc2C(=O)N1C/C(F)=C/c1nn[nH]c1F` (stereo not shown) [Compound 601, (Z)-3-((4-chloro-1-methyl-1H-pyrazol-5-yl)methyl)-2-(2-fluoro-3-(5-fluoro-1H-1,2,3-triazol-4-yl)allyl)isoindolin-1-one], the concentration for a half-maximal effect (EC50) in experiment [1] (setting [3]) was in the range of 500 to 5000 nM. In addition, in experiment [1], the “Enzymatic Emax” value was “A (A>3)”. In addition, in experiment [2] (setting [4]), the EC50 is under 500 nM and the maximal fold induction is 1.2 to 1.5.

Turning to `Cn1ncc(Cl)c1CC1c2ccccc2C(=O)N1C/C=C/c1nn[nH]c1F` (stereo not shown) [Compound 516, (E)-3-((4-chloro-1-methyl-1H-pyrazol-5-yl)methyl)-2-(3-(5-fluoro-1H-1,2,3-triazol-4-yl)allyl)isoindolin-1-one], the EC50 in experiment [1] (setting [3]) and in experiment [2] (setting [4]) was under 500 nM each time. In experiment [1], the “Enzymatic Emax” value was “B (3≥B>2)”. For the same molecule, in experiment [2] (setting [4]), the maximal fold induction was over 1.5.

Consider `O=C1c2ccccc2C(CCc2ccccc2)N1Cc1ccc2[nH]c(=O)oc2c1` (stereo not shown) [Compound 114, 6-((1-oxo-3-phenethylisoindolin-2-yl)methyl)benzo[d]oxazol-2(3H)-one], for which the values for the concentration for a half-maximal effect (EC50) in experiment [1] (setting [5]) and in experiment [2] (setting [6]) were 500 to 5000 nM and 5000 to 50000 nM, respectively. The “Enzymatic Emax” value in experiment [1] was “B (3≥B>2)”. The maximal fold induction in experiment [2] (setting [6]) was over 1.5.

Consider `Cn1ncc(Cl)c1CC1c2cc(C#N)ccc2C(=O)N1CC1CC2(CNC(=O)O2)C1` (stereo not shown) [Compound 464, 3-((4-chloro-1-methyl-1H-pyrazol-5-yl)methyl)-1-oxo-2-((6-oxo-5-oxa-7-azaspiro[3.4]octan-2-yl)methyl)isoindoline-5-carbonitrile], for which, in experiment [1] (setting [3]), the EC50 lay in the range of 500 to 5000 nM. Besides, in experiment [1], the “Enzymatic Emax” value is “B (3≥B>2)”. Moreover, in experiment [2] (setting [4]), the EC50 lay in the range of 500 to 5000 nM and the maximal fold induction was over 1.5.

On to `CC1c2cc(NC3CC3)ccc2C(=O)N1Cc1ccc2[nH]c(=O)oc2c1` (single isomer, unassigned) [Compound 242], for which the concentration giving a half-maximal response (EC50) in experiment [1] (setting [5]) is at least 5000 nM. Besides, the “Enzymatic Emax” value in experiment [1] is reported as “A (A>3)”. Besides, in experiment [2] (setting [6]), the EC50 fell in the range of 500 to 5000 nM and the maximal fold induction is over 1.5.

In the case of `O=C1c2ccccc2C(CC2=CCOCC2)N1Cc1ccc2[nH]c(=O)oc2c1` (stereo not shown) [Compound 225, 6-((1-((3,6-dihydro-2H-pyran-4-yl)methyl)-3-oxoisoindolin-2-yl)methyl)benzo[d]oxazol-2(3H)-one], the half-maximal effective concentration (EC50) in experiment [1] (setting [5]) and in experiment [2] (setting [6]) was 500 to 5000 nM each time. Also, the “Enzymatic Emax” value in experiment [1] is given as “A (A>3)”. Moreover, the maximal fold induction in experiment [2] (setting [6]) is over 1.5.

For the molecule `O=C1c2ccccc2C(Cc2nnc(Cl)cc2Cl)N1Cc1ccc2[nH]c(=O)oc2c1` (stereo not shown) [Compound 227, 6-((1-((4,6-dichloropyridazin-3-yl)methyl)-3-oxoisoindolin-2-yl)methyl)benzo[d]oxazol-2(3H)-one], the concentration for a half-maximal effect (EC50) in experiment [1] (setting [5]) was 500 to 5000 nM. In addition, the “Enzymatic Emax” value in experiment [1] was “A (A>3)”. In addition, in experiment [2] (setting [6]), the concentration giving a half-maximal response (EC50) lay within 500 to 5000 nM and the maximal fold induction was over 1.5.

Consider `O=C1c2ccccc2C(Cc2ncccc2Br)N1Cc1ccc2[nH]nnc2c1` (stereo not shown) [Compound 331, 2-((1H-benzo[d][1,2,3]triazol-5-yl)methyl)-3-((3-bromopyridin-2-yl)methyl)isoindolin-1-one], for which, in experiment [1] (setting [3]), the EC50 was under 500 nM. Further, the “Enzymatic Emax” value in experiment [1] is “A (A>3)”. For the same molecule, in experiment [2] (setting [4]), the EC50 was under 500 nM and the maximal fold induction was over 1.5.

`Cn1ncc(Cl)c1CC1c2cc(OC3CNC3)ccc2C(=O)N1Cc1ccc2[nH]nnc2c1` (stereo not shown) [Compound 437, 2-((1H-benzo[d][1,2,3]triazol-5-yl)methyl)-5-(azetidin-3-yloxy)-3-((4-chloro-1-methyl-1H-pyrazol-5-yl)methyl)isoindolin-1-one]: in experiment [1] (setting [3]), the EC50 is under 500 nM. Further, in experiment [1], the “Enzymatic Emax” value was “A (A>3)”. Also, in experiment [2] (setting [4]), the EC50 was in the range of 5000 to 50000 nM and the maximal fold induction was over 1.5.

As for `Cn1ncc(Cl)c1CC1c2cc(F)ccc2S(=O)(=O)N1CC1CC2(CNC(=O)O2)C1` (stereo not shown) [Compound 563, 2-((3-((4-chloro-1-methyl-1H-pyrazol-5-yl)methyl)-5-fluoro-1,1-dioxidobenzo[d]isothiazol-2(3H)-yl)methyl)-5-oxa-7-azaspiro[3.4]octan-6-one], in experiment [1] (setting [3]), the EC50 is 500 to 5000 nM. The “Enzymatic Emax” value in experiment [1] is recorded as “A (A>3)”. Further, in experiment [2] (setting [4]), the EC50 was under 500 nM and the maximal fold induction is over 1.5.

As for `Cn1ncc(Cl)c1CC1c2cc(Br)ccc2C(=O)N1Cc1ccc2[nH]nnc2c1` (stereo not shown) [Compound 326, 2-((1H-benzo[d][1,2,3]triazol-5-yl)methyl)-5-bromo-3-((4-chloro-1-methyl-1H-pyrazol-5-yl)methyl)isoindolin-1-one], the concentration for a half-maximal effect (EC50) in experiment [1] (setting [3]) and in experiment [2] (setting [4]) was under 500 nM in each case. Also, in experiment [1], the “Enzymatic Emax” value is on record as “A (A>3)”. The maximal fold induction in experiment [2] (setting [4]) was over 1.5.

Consider `[2H]C([2H])([2H])Oc1ccc(CN2C(=O)c3ccccc3C2Cc2c(C)ccnc2C#N)cc1` (stereo not shown) [Compound 583, 3-((2-(4-(methoxy-d3)benzyl)-3-oxoisoindolin-1-yl)methyl)-4-methylpicolinonitrile], for which, in experiment [1] (setting [3]), the EC50 is 500 to 5000 nM. In addition, the “Enzymatic Emax” value in experiment [1] was “A (A>3)”. For the same molecule, in experiment [2] (setting [4]), the EC50 was under 500 nM and the maximal fold induction was over 1.5.

For the molecule `Cn1ncc(Cl)c1CC1c2c(Cl)cccc2C(=O)N1Cc1ccc2[nH]nnc2c1` (stereo not shown) [Compound 339, 2-((1H-benzo[d][1,2,3]triazol-5-yl)methyl)-4-chloro-3-((4-chloro-1-methyl-1H-pyrazol-5-yl)methyl)isoindolin-1-one], the half-maximal effective concentration (EC50) in experiment [1] (setting [3]) was 500 to 5000 nM. Besides, in experiment [1], the “Enzymatic Emax” value was “A (A>3)”. In experiment [2] (setting [4]), the half-maximal effective concentration (EC50) was in the range of 500 to 5000 nM and the maximal fold induction was over 1.5.

For the molecule `Cn1ncc(Cl)c1CC1c2cc(C3CC3)ccc2C(=O)N1CC1CC2(CNC(=O)O2)C1` (stereo not shown) [Compound 311, 2-((3-((4-chloro-1-methyl-1H-pyrazol-5-yl)methyl)-5-cyclopropyl-1-oxoisoindolin-2-yl)methyl)-5-oxa-7-azaspiro[3.4]octan-6-one], the EC50 in experiment [1] (setting [5]) is 500 to 5000 nM; in experiment [2] (setting [6]), under 500 nM. Also, the “Enzymatic Emax” value in experiment [1] is listed as “B (3≥B>2)”. For the same molecule, the maximal fold induction in experiment [2] (setting [6]) is over 1.5.

For `Cn1ncc(Cl)c1CC1c2ccccc2C(=O)N1CC1CC2(CNC(=O)O2)C1` (stereo not shown) [Compound 307, 2-((1-((4-chloro-1-methyl-1H-pyrazol-5-yl)methyl)-3-oxoisoindolin-2-yl)methyl)-5-oxa-7-azaspiro[3.4]octan-6-one], the EC50 in experiment [1] (setting [5]) fell in the range of 500 to 5000 nM. Moreover, the “Enzymatic Emax” value in experiment [1] was “B (3≥B>2)”. In experiment [2] (setting [6]), the concentration giving a half-maximal response (EC50) was under 500 nM and the maximal fold induction is over 1.5.

On to `COCCn1cc(Cl)c(CC2c3ccccc3C(=O)N2Cc2ccc3[nH]c(=O)oc3c2)n1` (stereo not shown) [Compound 277, 6-((1-((4-chloro-1-(2-methoxyethyl)-1H-pyrazol-3-yl)methyl)-3-oxoisoindolin-2-yl)methyl) benzo[d]oxazol-2(3H)-one], for which the 50% effective concentration (EC50) in experiment [1] (setting [5]) was 500 to 5000 nM. The “Enzymatic Emax” value in experiment [1] is listed as “A (A>3)”. Also, in experiment [2] (setting [6]), the concentration giving a half-maximal response (EC50) was under 500 nM and the maximal fold induction is over 1.5.

`COc1ccc(CN2C(=O)c3ccccc3C2Cc2c(Cl)ccn(C)c2=O)cn1` (stereo not shown) [Compound 625, 3-((4-chloro-1-methyl-2-oxo-1,2-dihydropyridin-3-yl)methyl)-2-((6-methoxypyridin-3-yl)methyl)isoindolin-1-one]: the EC50 in experiment [1] (setting [3]) fell in the range of 500 to 5000 nM. Also, the “Enzymatic Emax” value in experiment [1] is “A (A>3)”. Also, in experiment [2] (setting [4]), the concentration for a half-maximal effect (EC50) lay in the range of 500 to 5000 nM and the maximal fold induction is over 1.5.

Source of the values: patent US20260078130A1, “NAMPT MODULATORS, PREPARATIONS, AND USES THEREOF” (SIRONAX LTD., priority 2022, published 2026).
